According to US20200207734A1, “HETEROCYCLIC COMPOUND AND USE THEREOF” (Takeda Pharmaceutical Company Limited, priority 2017, published 2020):

Molecular target: T1, human orexin type 2 receptor (Homo sapiens, UniProt O43614)
T1 construct: human orexin type 2 receptor cDNA was inserted into pcDNA3.1(+) plasmid vector (Invitrogen); expressed in transfected cells
T1 sequence (O43614 1-444): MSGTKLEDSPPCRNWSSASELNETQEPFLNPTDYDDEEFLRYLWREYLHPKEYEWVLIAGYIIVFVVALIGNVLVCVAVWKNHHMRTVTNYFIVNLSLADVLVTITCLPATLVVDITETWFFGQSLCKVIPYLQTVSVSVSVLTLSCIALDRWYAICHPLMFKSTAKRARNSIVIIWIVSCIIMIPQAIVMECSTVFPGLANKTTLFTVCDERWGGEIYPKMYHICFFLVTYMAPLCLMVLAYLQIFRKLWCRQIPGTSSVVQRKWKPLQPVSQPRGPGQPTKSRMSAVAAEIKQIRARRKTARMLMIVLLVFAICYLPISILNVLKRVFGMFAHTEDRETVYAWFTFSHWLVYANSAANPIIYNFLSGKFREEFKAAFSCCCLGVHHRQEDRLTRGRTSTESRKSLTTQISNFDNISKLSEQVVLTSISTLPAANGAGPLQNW
Experiment: Measurement of orexin type 2 receptor agonist activity (calcium fluorescence, CHO cells expressing hOX2R)
Assay type: cell-based
Settings: test compound 3 μM; CHO cells expressing human OX2 receptor; DMSO = 0%, orexin A (human) = 100%
Source text: To obtain a cell clone stably expressing human orexin type 2 receptor, human orexin type 2 receptor cDNA was inserted into pcDNA3.1(+) plasmid vector (Invitrogen), and a plasmid DNA for expression of human orexin type 2 receptor (pcDNA3.1(+)/hOX2R) was cloned. The plasmid DNA was introduced into CHO-dhfr cell by an electroporation method, and human orexin type 2 receptor expressing clone cells were obtained by limiting dilution method by using G418 drug resistance as a selection marker.
CHO cells forcibly expressing human OX2 receptor were seeded in each well of 384 well black transparent bottom plate (BD Falcon) at 7,500 cells/well, and cultured for one day in a 5% CO2 incubator at 37° C. After removal of the medium in the cell plate, assay buffer A containing a calcium indicator (HBSS (Thermo Fisher Scientific), 20 mM HEPES (Thermo Fisher Scientific), 0.1% BSA (Wako Pure Chemical Industries, Ltd. or Sigma-Aldrich), 2.5 μg/mL Fluo-4 AM (DOJINDO Chemical), 0.08% Pluronic F127 (DOJINDO Chemical), 1.25 mM probenecid (DOJINDO Chemical)) was added at 30 μL/well. The plate was stood for 30 min in a 5% CO2 incubator at 37° C., and further stood at room temperature for 30 min. A test compound prepared by diluting with assay buffer B (HBSS, 20 mM HEPES, 0.1% BSA) was added at 10 μL/well, and the fluorescence value was measured by FDSSμCELL (Hamamatsu Photonics K.K.) every one sec for 1 min, and thereafter every two sec for 1 min 40 sec. The activity (%) of the test compound was calculated assuming that variation in the fluorescence value when DMSO was added instead of the test compound was 0%, and variation in the fluorescence value when orexin A (human) (PEPTIDE INSTITUTE, INC.) was added at the final concentration of 10 nM was 100%.

OX2R agonist activity (3 μM, %) [%] | Structure (SMILES)
102 | CCS(=O)(=O)N[C@H]1CCN(C(=O)C(C)(C)O)[C@H]1Cc1cccc(-c2cccc(F)c2)c1F [Example 389, N-((2S,3S)-2-((2,3′-difluorobiphenyl-3-yl)methyl)-1-(2-hydroxy-2-methylpropanoyl)pyrrolidin-3-yl)ethanesulfonamide]
102 | CS(=O)(=O)N[C@H]1CCN(C(=O)C2(O)CCC2)[C@H]1Cc1csc(-c2cc(F)cc(F)c2)n1 [Example 339, N-((2S,3S)-2-((2-(3,5-difluorophenyl)-1,3-thiazol-4-yl)methyl)-1-((1-hydroxycyclobutyl)carbonyl)pyrrolidin-3-yl)methanesulfonamide]
90 | CCNC(=O)N1CCC[C@H](NS(C)(=O)=O)[C@@H]1Cc1cccc(Cc2cccc(C)c2)c1 (relative stereo) [Example 2, cis-N-ethyl-2-(3-(3-methylbenzyl)benzyl)-3-((methylsulfonyl)amino)piperidine-1-carboxamide]
116 | CCS(=O)(=O)N[C@H]1CCN(C(=O)C2CCC2)[C@H]1Cc1cccc(-c2ccccc2)c1 [Example 471, N-[(2S,3S)-2-[([1,1′-biphenyl]-3-yl)methyl]-(cyclobutanecarbonyl)pyrrolidin-3-yl]ethanesulfonamide]
113 | CC(C)(O)C(=O)N1CC[C@H](NS(=O)(=O)C2(F)CC2)[C@@H]1Cc1cccc(-c2cc(F)cc(F)c2)c1F [Example 480, 1-fluoro-N-{(2S,3S)-1-(2-hydroxy-2-methylpropanoyl)-2-[(2,3′,5′-trifluoro[1,1′-biphenyl]-3-yl)methyl]pyrrolidin-3-yl}cyclopropane-1-sulfonamide]
103 | CC(C)(O)C(=O)N1CC[C@H](NS(=O)(=O)C2(F)CC2)[C@@H]1Cc1cccc(-c2ccccc2)c1F [Example 479, 1-fluoro-N-[(2S,3S)-2-[(2-fluoro[1,1′-biphenyl]-3-yl)methyl]-1-(2-hydroxy-2-methylpropanoyl)pyrrolidin-3-yl] cyclopropane-1-sulfonamide]
84 | C=C(C)c1cccc(C[C@H]2[C@@H](NS(C)(=O)=O)CCCN2C(=O)OC)c1 (relative stereo) [Example 55, methyl cis-3-((methylsulfonyl)amino)-2-(3-(prop-1-en-2-yl)benzyl)piperidlne-1-carboxylate]
106 | CC(C)(O)C(=O)N1CC[C@H](NS(C)(=O)=O)[C@@H]1Cc1cccc(-c2cccc(F)c2)c1F [Example 387, N-((2S,3S)-2-((2,3′-difluorobiphenyl-3-yl)methyl)-1-(2-hydroxy-2-methylpropanoyl)pyrrolidin-3-yl)methanesulfonamide]
100 | CS(=O)(=O)N[C@H]1CCN(C(=O)C2CCC2)[C@H]1Cc1cc(F)cc(-c2ccccc2)c1 (relative stereo) [Example 299, N-(cis-1-(cyclobutylcarbonyl)-2-((5-fluorobiphenyl-3-yl)methyl)pyrrolidin-3-yl)methanesulfonamide]

Second part, the compound before the results:

Structure (SMILES) | OX2R agonist activity (3 μM, %) [%]
CC(C)OC(=O)N1CCC[C@H](NS(=O)(=O)CCl)[C@@H]1Cc1cccc(-c2ccccc2)n1 (relative stereo) [Example 181, isopropyl cis-3-(((chloromethyl)sulfonyl)amino)-2-((6-phenylpyridin-2-yl)methyl)piperidine-1-carboxylate] | 100
COC(=O)N1CCC[C@H](NS(C)(=O)=O)[C@@H]1Cc1cccc(-c2ccccc2)c1 (relative stereo) [Example 11, methyl cis-2-(biphenyl-3-ylmethyl)-3-((methylsulfonyl)amino)piperidine-1-carboxylate] | 80
CCNC(=O)N1CCC[C@H](NS(C)(=O)=O)[C@@H]1Cc1cccc(Cc2ccccc2)c1 (relative stereo) [Example 1, cis-2-(3-benzylbenzyl)-N-ethyl-3-((methylsulfonyl)amino)piperidine-1-carboxamide] | 81
CN(C)C(=O)N1CCC[C@H](NS(C)(=O)=O)[C@@H]1Cc1cccc(-c2ccccc2)c1 (relative stereo) [Example 204, cis-2-(biphenyl-3-ylmethyl)-N,N-dimethyl-3-((methylsulfonyl)amino)piperidine-1-carboxamide] | 95
CS(=O)(=O)N[C@H]1CCN(C(=O)C2(C(F)(F)F)CCC2)[C@H]1Cc1cccc(-c2cccc(F)c2)c1 [Example 309, N-((2S,3S)-2-((3′-fluorobiphenyl-3-yl)methyl)-1-((1-(trifluoromethyl)cyclobutyl)carbonyl)pyrrolidin-3-yl)methanesulfonamide] | 101
CCNC(=O)N1CCC[C@H](NS(C)(=O)=O)[C@@H]1Cc1cccc(OC2CCCCC2)c1 (relative stereo) [Example 7, cis-2-(3-(cyclohexyloxy)benzyl)-N-ethyl-3-((methylsulfonyl)amino)piperidine-1-carboxamide] | 62
CC1(C(=O)N2CC[C@H](NS(C)(=O)=O)[C@@H]2Cc2cccc(-c3cccc(F)c3)c2F)CC1 [Example 351, N-((2S,3S)-2-((2,3′-difluorobiphenyl-3-yl)methyl)-1-((1-methylcyclopropyl)carbonyl)pyrrolidin-3-yl)methanesulfonamide] | 106
O=C(C1CCC1)N1CC[C@H](NS(=O)(=O)C2CC2)[C@@H]1Cc1csc(-c2ccccc2)n1 [Example 321, N-((2S,3S)-1-(cyclobutylcarbonyl)-2-((2-phenyl-1,3-thiazol-4-yl)methyl)pyrrolidin-3-yl)cyclopropanesulfonamide] | 104
CS(=O)(=O)N[C@H]1CCCN(C(=O)Oc2ccccc2)[C@H]1Cc1cccc(-c2ccccc2)c1 (relative stereo) [Example 145, phenyl cis-2-(biphenyl-3-ylmethyl)-3-((methylsulfonyl)amino)piperidine-1-carboxylate] | 24
CC(C)OC(=O)N1CCCC(NS(C)(=O)=O)C1Cc1csc(-c2ccccc2)n1 (stereo not drawn) [Example 210, Optically Active isopropyl cis-3-((methylsulfonyl)amino)-2-((2-phenyl-1,3-thiazol-4-yl)methyl)piperidine-1-carboxylate] | 102
CS(=O)(=O)N[C@H]1CCN(C(=O)N2CC(F)C2)[C@H]1Cc1cccc(-c2cccc(F)c2)c1 [Example 341, N-((2S,3S)-1-((3-fluoroazetidin-1-yl)carbonyl)-2-((3′-fluorobiphenyl-3-yl)methyl)pyrrolidin-3-yl)methanesulfonamide] | 98
CC(C)(O)C(=O)N1CC[C@H](NS(=O)(=O)C2CC2)[C@@H]1Cc1cccc(-c2cc(F)cc(F)c2)c1F [Example 439, N-((2S,3S)-1-(2-hydroxy-2-methylpropanoyl)-2-((2,3′,5′-trifluorobiphenyl-3-yl)methyl)pyrrolidin-3-yl)cyclopropanesulfonamide] | 98
CCNC(=O)N1CCC[C@H](NS(C)(=O)=O)[C@@H]1Cc1cccc(-c2ccc(C(F)(F)F)cc2)c1 (relative stereo) [Example 35, cis-N-ethyl-3-((methylsulfonyl)amino)-2-((4′-(trifluoromethyl)biphenyl-3-yl)methyl)piperidine-1-carboxamide] | 41
